Experimental data taken from patent publication US8802597B2, “Herbicidal pyrimidines” (E I du Pont de Nemours and Company, priority 2003, dated 2014).

Legend:
Type in all cases: in vivo
[1] = test system: redroot pigweed (Amaranthus retroflexus); experiment: Test A pre/postemergence
Procedure, shortened: (§1)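 Pre/post greenhouse screen; loam/sand soil; solvent + surfactant formulation; pre = directed soil spray at planting, post = 1–2 leaf plants, 2–10 cm; ~10 d; visual 0–100 rating vs untreated.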

[2] = test system: morningglory (Ipomoea spp.); experiment: Test A pre/postemergence
Procedure, shortened: as §1

[3] = test system: giant foxtail (Setaria faberi); experiment: Test A pre/postemergence
Procedure, shortened: as §1

[4] = test system: velvetleaf (Abutilon theophrasti); experiment: Test A pre/postemergence
Procedure, shortened: as §1

[5] = test system: barnyardgrass (Echinochloa crus-galli); experiment: Test A pre/postemergence
Procedure, shortened: as §1

[6] = test system: crabgrass (Digitaria sanguinalis); experiment: Test A pre/postemergence
Procedure, shortened: as §1

[7] = test system: early watergrass (Echinochloa oryzoides); experiment: Test E flooded paddy water application; details: Flood, 21 days, scale 0 to 100 (0 no effect, 100 complete control)
Procedure, shortened: (§2)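 Weeds sown in sterilized Tama silt loam (2.6% organic matter), greenhouse 29.5/26.7° C, 16-h photoperiod; at 2.0–2.5-leaf stage pots flooded to 3 cm and compound added to paddy water. Visual rating vs untreated controls after 21 days, 0 (no effect) to 100 (complete control).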

[8] = test system: bearded (brdd.) sprangletop (Leptochloa fusca ssp. fascicularis); experiment: Test E flooded paddy water application; details: Flood, 21 days, scale 0 to 100 (0 no effect, 100 complete control)
Procedure, shortened: as §2

[9] = test system: water seeded rice seedlings (Oryza sativa cv. ‘Japonica-M202’); experiment: Test E flooded paddy water application; details: Flood, 21 days, scale 0 to 100 (0 no effect, 100 complete control)
Procedure, shortened: as §2

[10] = test system: ducksalad (Heteranthera limosa); experiment: Test E flooded paddy water application; details: Flood, 21 days, scale 0 to 100 (0 no effect, 100 complete control)
Procedure, shortened: as §2

[11] = test system: late watergrass (Echinochloa oryzicola); experiment: Test E flooded paddy water application; details: Flood, 21 days, scale 0 to 100 (0 no effect, 100 complete control)
Procedure, shortened: as §2

[12] = test system: purple redstem (Ammannia coccinea); experiment: Test E flooded paddy water application; details: Flood, 21 days, scale 0 to 100 (0 no effect, 100 complete control)
Procedure, shortened: as §2

[13] = test system: smallflower umbrella sedge (Cyperus difformis); experiment: Test E flooded paddy water application; details: Flood, 21 days, scale 0 to 100 (0 no effect, 100 complete control)
Procedure, shortened: as §2

[14] = test system: junglerice (Echinochloa colona); experiment: Test E flooded paddy water application; details: Flood, 21 days, scale 0 to 100 (0 no effect, 100 complete control)
Procedure, shortened: as §2

[15] = test system: barnyardgrass (Echinochloa crus-galli); experiment: Test E flooded paddy water application; details: Flood, 21 days, scale 0 to 100 (0 no effect, 100 complete control)
Procedure, shortened: as §2

[16] = test system: transplanted rice seedlings (Oryza sativa cv. ‘Japonica-M202’); experiment: Test E flooded paddy water application; details: Flood, 21 days, scale 0 to 100 (0 no effect, 100 complete control)
Procedure, shortened: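 Greenhouse pots of Tama silt loam with weeds and rice at 2.0–2.5-leaf stage, flooded to 3 cm; compounds applied directly into paddy water, depth maintained. Visual rating versus untreated controls after 21 days, 0 (no effect) to 100 (complete control); 29.5/26.7 °C, 16-h photoperiod.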

[17] = test system: rice flatsedge (Cyperus iria); experiment: Test E flooded paddy water application; details: Flood, 21 days, scale 0 to 100 (0 no effect, 100 complete control)
Procedure, shortened: as §2

[18] = Postemergence, 125 g ai/ha, 0 to 100 scale (0 no effect, 100 complete control)
[19] = Postemergence, 500 g ai/ha, 0 to 100 scale (0 no effect, 100 complete control)
[20] = Preemergence, 125 g ai/ha, 0 to 100 scale where 0 is no effect and 100 is complete control, approximately ten days
[21] = Preemergence, 500 g ai/ha, 0 to 100 scale where 0 is no effect and 100 is complete control, approximately ten days

CCOC(=O)c1nc(-c2ccc(Cl)cc2F)nc(N)c1Br [Compound 69]
35: Plant response rating, Velvetleaf [4, 20]
85: Plant response rating, Pigweed [1, 21] | Plant response rating, Velvetleaf [4, 18]
0: Plant response rating, Morningglory [2, 20] | Plant response rating, Morningglory [2, 21] | Plant response rating, Foxtail, Giant [3, 18] | Plant response rating, Barnyardgrass [5, 18] | Plant response rating, Barnyardgrass [5, 20] | Watergrass, Early plant response rating ([7]; 32 g ai/ha) | Watergrass, Early plant response rating ([7]; 64 g ai/ha) | Watergrass, Early plant response rating ([7]; 125 g ai/ha) | Watergrass, Early plant response rating ([7]; 250 g ai/ha) | Plant response rating, Watergrass, Early ([7]; 16 g ai/ha) | Sprangletop, Brdd. plant response rating ([8]; 32 g ai/ha) | Sprangletop, Brdd. plant response rating ([8]; 64 g ai/ha) | Sprangletop, Brdd. plant response rating ([8]; 125 g ai/ha) | Sprangletop, Brdd. plant response rating ([8]; 250 g ai/ha) | Plant response rating, Sprangletop, Brdd. ([8]; 16 g ai/ha) | Rice, Water Seeded plant response rating ([9]; 32 g ai/ha) | Rice, Water Seeded plant response rating ([9]; 64 g ai/ha) | Rice, Water Seeded plant response rating ([9]; 125 g ai/ha) | Rice, Water Seeded plant response rating ([9]; 250 g ai/ha) | Plant response rating, Rice, Water Seeded ([9]; 16 g ai/ha) | Watergrass, Late plant response rating ([11]; 32 g ai/ha) | Watergrass, Late plant response rating ([11]; 64 g ai/ha) | Watergrass, Late plant response rating ([11]; 125 g ai/ha) | Watergrass, Late plant response rating ([11]; 250 g ai/ha) | Plant response rating, Watergrass, Late ([11]; 16 g ai/ha) | Redstem plant response rating ([12]; 32 g ai/ha) | Redstem plant response rating ([12]; 64 g ai/ha) | Redstem plant response rating ([12]; 125 g ai/ha) | Plant response rating, Redstem ([12]; 16 g ai/ha) | Sedge, Umbrella plant response rating ([13]; 32 g ai/ha) | Plant response rating, Sedge, Umbrella ([13]; 16 g ai/ha) | Junglerice plant response rating ([14]; 32 g ai/ha) | Junglerice plant response rating ([14]; 64 g ai/ha) | Junglerice plant response rating ([14]; 125 g ai/ha) | Junglerice plant response rating ([14]; 250 g ai/ha) | Plant response rating, Junglerice ([14]; 16 g ai/ha) | Barnyardgrass plant response rating ([15]; 32 g ai/ha) | Barnyardgrass plant response rating ([15]; 64 g ai/ha) | Barnyardgrass plant response rating ([15]; 125 g ai/ha) | Plant response rating, Barnyardgrass ([15]; 16 g ai/ha) | Rice, Transplanted plant response rating ([16]; 32 g ai/ha) | Rice, Transplanted plant response rating ([16]; 64 g ai/ha) | Rice, Transplanted plant response rating ([16]; 125 g ai/ha) | Rice, Transplanted plant response rating ([16]; 250 g ai/ha) | Plant response rating, Rice, Transplanted ([16]; 16 g ai/ha)
40: Plant response rating, Crabgrass [6, 19]
20: Plant response rating, Crabgrass [6, 18]
90: Plant response rating, Pigweed [1, 18] | Plant response rating, Pigweed [1, 19] | Plant response rating, Morningglory [2, 19] | Plant response rating, Velvetleaf [4, 19] | Sedge, Umbrella plant response rating ([13]; 125 g ai/ha)
50: Plant response rating, Foxtail, Giant [3, 21] | Plant response rating, Crabgrass [6, 20]
5: Plant response rating, Barnyardgrass [5, 19]
65: Plant response rating, Pigweed [1, 20] | Plant response rating, Velvetleaf [4, 21] | Plant response rating, Flatsedge, Rice ([17]; 16 g ai/ha)
75: Plant response rating, Morningglory [2, 18] | Plant response rating, Crabgrass [6, 21]
95: Plant response rating, Ducksalad ([10]; 16 g ai/ha)
70: Flatsedge, Rice plant response rating ([17]; 32 g ai/ha)
55: Plant response rating, Foxtail, Giant [3, 19]
10: Plant response rating, Foxtail, Giant [3, 20]
100: Ducksalad plant response rating ([10]; 32 g ai/ha) | Ducksalad plant response rating ([10]; 64 g ai/ha) | Ducksalad plant response rating ([10]; 125 g ai/ha) | Ducksalad plant response rating ([10]; 250 g ai/ha) | Sedge, Umbrella plant response rating ([13]; 250 g ai/ha) | Flatsedge, Rice plant response rating ([17]; 64 g ai/ha) | Flatsedge, Rice plant response rating ([17]; 125 g ai/ha) | Flatsedge, Rice plant response rating ([17]; 250 g ai/ha)
30: Redstem plant response rating ([12]; 250 g ai/ha) | Sedge, Umbrella plant response rating ([13]; 64 g ai/ha)
15: Plant response rating, Barnyardgrass [5, 21]
